Results from PubChem BioAssay AID1346 (Sanford-Burnham Center for Chemical Genomics, 2008).
Calls of active or inactive are those of the source.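 How the source made its calls: active means compounds whose cell survival under thapsigargin stays above the level of untreated control cells; inactive means the rest, which was every compound here.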

System: PC12 rat cells, thapsigargin death, ATPlite luminescence, 24 h
Experiment: protection from thapsigargin-triggered PC12 cell death, SAR follow-up, undifferentiated PC12, rat pheochromocytoma, ATP luminescence (AID 1346)
Conditions: at 25 µM, stronger effect = higher value
[1] = measured here: survival at 0.25 uM thapsigargin
[2] = measured here: survival at 1 uM thapsigargin

## CSc1ccc(C2Nc3ccccc3NC3=C2C(=O)CC(c2ccccc2)C3)cc1 (stereo not drawn)
  survival: 31% (inactive)
[1]
  survival: 23%
[2]
  survival: 19%

## CCOc1cccc(C2Nc3ccccc3NC3=C2C(=O)CC(c2ccc(OC)cc2)C3)c1 (stereo not drawn)
  survival: 30% (inactive)
[1]
  survival: 18%
[2]
  survival: 14%

## COc1ccc(C2CC(=O)C3=C(C2)Nc2ccccc2NC3c2ccccc2C(F)(F)F)cc1OC (stereo not drawn)
  survival: 30% (inactive)
[1]
  survival: 26%
[2]
  survival: 24%

## COc1ccc(C2CC(=O)C3=C(C2)Nc2ccccc2NC3c2cccc(C(F)(F)F)c2)cc1OC (stereo not drawn)
  survival: 26% (inactive)
[1]
  survival: 25%
[2]
  survival: 23%

## COc1ccc(C2CC(=O)C3=C(C2)Nc2ccccc2NC3c2cccc(Br)c2)cc1OC (stereo not drawn)
  survival: 31% (inactive)
[1]
  survival: 25%
[2]
  survival: 21%

## COc1ccc(C2CC(=O)C3=C(C2)Nc2ccccc2NC3c2cc(C)ccc2C)cc1 (stereo not drawn)
  survival: 25% (inactive)
[1]
  survival: 27%
[2]
  survival: 26%

## CC1(C)CC(=O)C2=C(C1)Nc1ccccc1NC2c1ccc(-c2ccccc2)cc1 (stereo not drawn)
  survival: 37% (inactive)
[1]
  survival: 33%
[2]
  survival: 29%

## CCOc1cc(C2Nc3ccccc3NC3=C2C(=O)CC(c2ccc(OC)cc2)C3)cc(Cl)c1O (stereo not drawn)
  survival: 26% (inactive)
[1]
  survival: 38%
[2]
  survival: 35%

## CCCOc1ccc(C2Nc3ccccc3NC3=C2C(=O)CC(c2ccc(OC)c(OC)c2)C3)cc1 (stereo not drawn)
  survival: 25% (inactive)
[1]
  survival: 28%
[2]
  survival: 26%

## O=C1CC(c2ccccc2)CC2=C1C(c1c(F)cccc1Cl)Nc1ccccc1N2 (stereo not drawn)
  survival: 22% (inactive)
[1]
  survival: 34%
[2]
  survival: 24%

## COc1ccc(C2CC(=O)C3=C(C2)Nc2ccccc2NC3c2cccc(Oc3ccccc3)c2)cc1OC (stereo not drawn)
  survival: 49% (inactive)
[1]
  survival: 29%
[2]
  survival: 28%
